Test results reported in the NIST ThermoML archive (doi:10.1007/s10765-014-1718-x).

Details: for thermal diffusivity: Optical interferometry; for speed of sound: Light diffraction method

CCCCC [pentane]
Details | speed of sound [m/s] | thermal diffusivity [m2/s]
306.16 K, Liquid | – | 7.18e-08
308.14 K, Liquid | 963.73 | –
318.45 K, Liquid | 915.77 | –
323.16 K, Liquid | – | 6.84e-08
328.23 K, Liquid | 866.06 | –
338.02 K, Liquid | 815.68 | –
338.39 K, Liquid | – | 6.42e-08
348.32 K, Liquid | 765.39 | –
348.68 K, Gas | 189.16 | –
353.16 K, Liquid | – | 6.19e-08
358.13 K, Liquid | – | 6.07e-08
358.22 K, Gas | 187.01 | –
359.03 K, Liquid | 715.2 | –
362.37 K, Liquid | – | 5.91e-08
367.9 K, Gas | 185.11 | –
368.18 K, Liquid | – | 5.79e-08
368.31 K, Liquid | 667.88 | –
373.47 K, Liquid | – | 5.74e-08
377.79 K, Gas | 183.06 | –
378.2 K, Liquid | – | 5.69e-08
379.04 K, Liquid | 618.28 | –
383.42 K, Liquid | – | 5.53e-08
388.15 K, Liquid | – | 5.45e-08
388.18 K, Gas | 178.8 | –
388.52 K, Liquid | 571.45 | –
393.32 K, Liquid | – | 5.4e-08
396.29 K, Liquid | – | 5.35e-08
398.16 K, Liquid | 529.46 | –
398.34 K, Gas | 174.99 | –
399.16 K, Liquid | – | 5.24e-08
403.33 K, Liquid | – | 5.16e-08
406.96 K, Liquid | 483.6 | –
408.14 K, Gas | 169.99 | –
408.63 K, Liquid | – | 5.12e-08
413.33 K, Liquid | – | 5.01e-08
417.94 K, Liquid | 428.66 | –
418.17 K, Gas | 162.61 | –
418.39 K, Liquid | – | 4.93e-08
423.55 K, Gas | – | 2.31e-07
423.61 K, Liquid | – | 4.84e-08
428.12 K, Gas | – | 2.14e-07
428.17 K, Gas | 155.41 | –
428.17 K, Liquid | – | 4.69e-08
428.38 K, Liquid | 382.43 | –
433.15 K, Gas | – | 1.92e-07
433.19 K, Gas | 150.86 | –
433.29 K, Liquid | – | 4.58e-08
436.13 K, Gas | – | 1.77e-07
436.19 K, Liquid | – | 4.49e-08
438.21 K, Gas | 146.71 | –
438.23 K, Liquid | 327.33 | –
438.87 K, Gas | – | 1.64e-07
439.21 K, Liquid | – | 4.43e-08
442.09 K, Gas | – | 1.49e-07
442.35 K, Liquid | – | 4.38e-08
443.15 K, Gas | 140.85 | –
445.16 K, Liquid | – | 4.34e-08
445.19 K, Gas | – | 1.35e-07
447.95 K, Gas | 136.18 | –
448.08 K, Liquid | – | 4.2e-08
448.25 K, Gas | – | 1.2e-07
448.62 K, Liquid | 267.2 | –
451.23 K, Gas | – | 1.08e-07
451.38 K, Liquid | – | 4.08e-08
453.26 K, Gas | 130.15 | –
454.03 K, Gas | – | 9.78e-08
455.2 K, Liquid | – | 3.84e-08
457.04 K, Gas | – | 8.48e-08
457.87 K, Liquid | 209.66 | –
458.28 K, Gas | 123.99 | –
458.4 K, Liquid | – | 3.55e-08
460.05 K, Gas | – | 7.23e-08
460.1 K, Liquid | – | 3.37e-08
462.08 K, Gas | – | 5.64e-08
463.16 K, Gas | 116.39 | –
463.27 K, Liquid | 170.65 | –
463.41 K, Liquid | – | 3.04e-08
464.04 K, Gas | – | 4.16e-08
466.12 K, Gas | – | 3.45e-08
466.14 K, Liquid | 145.22 | –
466.37 K, Liquid | – | 2.59e-08
469.33 K, Liquid | 111.31 | –
